These results are taken from BindingDB's records for doi:10.1021/jm010087e (The University of Western Australia, 2001).

Molecules are shown by their SMILES.

In general, Ki refers to the equilibrium dissociation constant of an inhibitor or competing ligand from its target. Lower therefore signals tighter binding.

The nature of the assay: Inhibitory activity against clostridium histolyticum collagenase.

Turning to `CC(C(=O)O)N(Cc1ccccc1[N+](=O)[O-])C(=O)NS(=O)(=O)c1ccccc1` (configuration not stated) [2-((2-nitrobenzyl){[(phenylsulfonyl)amino]carbonyl}amino)propanoic acid], the Ki worked out at 3.6 µM.
To `COc1ccc(S(=O)(=O)N(Cc2ccccc2[N+](=O)[O-])C(C)C(=O)NO)cc1` (configuration not stated) [2-(N-(2-nitrobenzyl)-4-methoxyphenylsulfonamido)-N-hydroxypropanamide] belongs 0.019 µM.
`CC(C(=O)NO)N(Cc1ccccc1[N+](=O)[O-])C(=O)Nc1ccc(F)cc1F` (configuration not stated) [2-[3-(2,4-Difluoro-phenyl)-1-(2-nitro-benzyl)-ureido]-N-hydroxy-propionamide] had a Ki of 0.012 µM.
In the case of `CC(C(=O)O)N(Cc1ccccc1[N+](=O)[O-])C(=O)Nc1ccc(F)cc1F` (configuration not stated) [2-[3-(2,4-Difluoro-phenyl)-1-(2-nitro-benzyl)-ureido]-propionic acid] it was 6.5 µM.
For `CC(C(=O)NO)N(Cc1ccccc1[N+](=O)[O-])C(=O)Nc1ccc(Cl)c(Cl)c1` (configuration not stated) [2-[3-(3,4-Dichloro-phenyl)-1-(2-nitro-benzyl)-ureido]-N-hydroxy-propionamide], the Ki turned out to be 0.014 µM.
In turn, `CC(C(=O)O)N(Cc1ccccc1[N+](=O)[O-])C(=O)Nc1ccc(Cl)c(Cl)c1` (configuration not stated) [2-[3-(3,4-Dichloro-phenyl)-1-(2-nitro-benzyl)-ureido]-propionic acid] registered a Ki of 5.3 µM.
In the case of `CC(C(=O)NO)N(Cc1ccccc1[N+](=O)[O-])C(=O)Nc1cccc(Cl)c1` (configuration not stated) [2-[3-(3-Chloro-phenyl)-1-(2-nitro-benzyl)-ureido]-N-hydroxy-propionamide] it was 0.017 µM; in that of `CC(C(=O)O)N(Cc1ccccc1[N+](=O)[O-])C(=O)Nc1cccc(Cl)c1` (configuration not stated) [2-[3-(3-Chloro-phenyl)-1-(2-nitro-benzyl)-ureido]-propionic acid], 6.6 µM.
In the case of `CC(C(=O)NO)N(Cc1ccccc1[N+](=O)[O-])C(=O)Nc1ccc(Cl)cc1` (configuration not stated) [2-[3-(4-Chloro-phenyl)-1-(2-nitro-benzyl)-ureido]-N-hydroxy-propionamide], the affinity corresponds to a Ki of 0.019 µM.
The molecule `CC(C(=O)O)N(Cc1ccccc1[N+](=O)[O-])C(=O)Nc1ccc(Cl)cc1` (configuration not stated) [2-[3-(4-Chloro-phenyl)-1-(2-nitro-benzyl)-ureido]-propionic acid] had a Ki of 6.8 µM.
For `CC(C(=O)NO)N(Cc1ccccc1[N+](=O)[O-])C(=O)Nc1ccc(F)cc1` (configuration not stated) [2-[3-(4-Fluoro-phenyl)-1-(2-nitro-benzyl)-ureido]-N-hydroxy-propionamide], the Ki came out at 0.015 µM.
To `CC(C(=O)O)N(Cc1ccccc1[N+](=O)[O-])C(=O)Nc1ccc(F)cc1` (configuration not stated) [2-[3-(4-Fluoro-phenyl)-1-(2-nitro-benzyl)-ureido]-propionic acid] belongs 6.2 µM; to `CC(C(=O)NO)N(Cc1ccccc1[N+](=O)[O-])C(=S)NC(=O)c1ccccc1` (configuration not stated) [2-[3-Benzoyl-1-(2-nitro-benzyl)-thioureido]-N-hydroxy-propionamide], 0.008 µM; to `CC(C(=O)O)N(Cc1ccccc1[N+](=O)[O-])C(=S)NC(=O)c1ccccc1` (configuration not stated) [2-[3-Benzoyl-1-(2-nitro-benzyl)-thioureido]-propionic acid], 0.7 µM.
To `CC(C(=O)O)N(Cc1ccccc1[N+](=O)[O-])C(=O)Nc1cccc2ccccc12` (configuration not stated) [2-[3-Naphthalen-1-yl-1-(2-nitro-benzyl)-ureido]-propionic acid] belongs 5 µM.
In the case of `CC(C(=O)NO)N(Cc1ccccc1[N+](=O)[O-])Sc1ccc([N+](=O)[O-])cc1[N+](=O)[O-]` (configuration not stated) [2-[(2,4-Dinitro-phenylsulfanyl)-(2-nitro-benzyl)-amino]-N-hydroxy-propionamide] it was 0.009 µM; in that of `CC(C(=O)O)N(Cc1ccccc1[N+](=O)[O-])Sc1ccc([N+](=O)[O-])cc1[N+](=O)[O-]` (configuration not stated) [2-[(2,4-Dinitro-phenylsulfanyl)-(2-nitro-benzyl)-amino]-propionic acid], 5.2 µM; in that of `CC(C(=O)NO)N(Cc1ccccc1[N+](=O)[O-])S(=O)(=O)c1cc(Cl)ccc1Cl` (configuration not stated) [2-[(2,5-Dichloro-benzenesulfonyl)-(2-nitro-benzyl)-amino]-N-hydroxy-propionamide], 0.014 µM.
`CC(C(=O)O)N(Cc1ccccc1[N+](=O)[O-])S(=O)(=O)c1cc(Cl)ccc1Cl` (configuration not stated) [2-[(2,5-Dichloro-benzenesulfonyl)-(2-nitro-benzyl)-amino]-propionic acid]: the Ki amounted to 3.4 µM.
`CC(C(=O)O)N(Cc1ccccc1[N+](=O)[O-])S(=O)(=O)c1ccccc1[N+](=O)[O-]` (configuration not stated) [2-[(2-Nitro-benzenesulfonyl)-(2-nitro-benzyl)-amino]-propionic acid] displayed a Ki of 4.4 µM.
To `Cc1cc(C)c(S(=O)(=O)N(Cc2ccccc2[N+](=O)[O-])C(C)C(=O)O)c(C)c1` (configuration not stated) [2-[(2-Nitro-benzyl)-(2,4,6-trimethyl-benzenesulfonyl)-amino]-propionic acid] belongs 6 µM; to `CC(C(=O)O)N(Cc1ccccc1[N+](=O)[O-])Sc1ccccc1[N+](=O)[O-]` (configuration not stated) [2-[(2-Nitro-benzyl)-(2-nitro-phenylsulfanyl)-amino]-propionic acid], 6.2 µM; to `CC(C(=O)O)N(Cc1ccccc1[N+](=O)[O-])S(=O)(=O)c1cccc(C(F)(F)F)c1` (configuration not stated) [2-[(2-Nitro-benzyl)-(3-trifluoromethyl-benzenesulfonyl)-amino]-propionic acid], 0.4 µM.
In the case of `CC(C(=O)O)N(Cc1ccccc1[N+](=O)[O-])Sc1ccc([N+](=O)[O-])cc1` (configuration not stated) [2-[(2-Nitro-benzyl)-(4-nitro-phenylsulfanyl)-amino]-propionic acid] it was 6 µM; in that of `CC(C(=O)O)N(Cc1ccccc1[N+](=O)[O-])S(=O)(=O)C(F)(F)C(F)(F)C(F)(F)C(F)(F)F` (configuration not stated) [2-[(2-Nitro-benzyl)-(nonafluorobutane-1-sulfonyl)-amino]-propionic acid], 2.1 µM.
To `CC(C(=O)O)N(Cc1ccccc1[N+](=O)[O-])S(=O)(=O)c1cccc2cccnc12` (configuration not stated) [2-[(2-Nitro-benzyl)-(quinoline-8-sulfonyl)-amino]-propionic acid] belongs 2 µM; to `CC(C(=O)O)N(Cc1ccccc1[N+](=O)[O-])S(=O)(=O)c1cccs1` (configuration not stated) [2-[(2-Nitro-benzyl)-(thiophene-2-sulfonyl)-amino]-propionic acid], 2 µM.
The molecule `Cc1ccc(S(=O)(=O)N(Cc2ccccc2[N+](=O)[O-])C(C)C(=O)O)cc1` (configuration not stated) [2-[(2-Nitro-benzyl)-(toluene-4-sulfonyl)-amino]-propionic acid] gave a Ki of 17 µM.
In the case of `CC(C(=O)O)N(Cc1ccccc1[N+](=O)[O-])S(=O)(=O)c1c(F)c(F)c(F)c(F)c1F` (configuration not stated) [2-[(2-Nitro-benzyl)-pentafluorobenzenesulfonyl-amino]-propionic acid] it was 0.3 µM; in that of `CC(C(=O)O)N(Cc1ccccc1[N+](=O)[O-])S(=O)(=O)Cc1ccccc1` (configuration not stated) [2-[(2-Nitro-benzyl)-phenylmethanesulfonyl-amino]-propionic acid], 18 µM; in that of `CC(C(=O)O)N(Cc1ccccc1[N+](=O)[O-])S(=O)(=O)C(Cl)(Cl)Cl` (configuration not stated) [2-[(2-Nitro-benzyl)-trichloromethanesulfonyl-amino]-propionic acid], 5 µM.
In turn, `CC(C(=O)O)N(Cc1ccccc1[N+](=O)[O-])S(=O)(=O)C(F)(F)F` (configuration not stated) [2-[(2-Nitro-benzyl)-trifluoromethanesulfonyl-amino]-propionic acid] registered a Ki of 5.1 µM.
